Assay results from patent US4241083A, “Germicidal composition for agriculture and horticulture” (priority 1978, dated 1980).

Columns and labels:
Valsa ceratosperma [1] = test: Growth of germs on potato dextrose-agar medium containing the compound (Ex. 1); type: cell-based; set-up: key: +++: extremely much growth; ++: much growth; +: a little growth; -: no growth; conditions: two weeks, 25° C.
Description: (§1) Ethyl 2-(2-hydroxyethylamino)-3-benzoylpropionate hydrochloride was added to potato dextrose-agar culture medium in the concentration indicated in Table 1 and the suspensions of various kinds of germs were dropped on the culture medium. After incubation of the germs for two weeks in thermostat (25° C.), the growing conditions were observed.
(§2) In Table 1, +++, ++, + and - represent "extremely much growth", "much growth", "a little growth" and "no growth" respectively.

Verticillium alboatrum = test: Growth of germs on potato dextrose-agar medium containing the compound (Ex. 2); type: cell-based; set-up: key: +++: extremely much growth; ++: much growth; +: a little growth; -: no growth; conditions: two weeks, 25° C.
Description: as §1, §2

Botrytis alli = test: Growth of germs on potato dextrose-agar medium containing the compound (Ex. 3); type: cell-based; set-up: key: +++: extremely much growth; ++: much growth; +: a little growth; -: no growth; conditions: two weeks, 25° C.
Description: as §1, §2

Cladosporium cucumerium = test: Growth of germs on potato dextrose-agar medium containing the compound (Ex. 4); type: cell-based; set-up: key: +++: extremely much growth; ++: much growth; +: a little growth; -: no growth; conditions: two weeks, 25° C.
Description: as §1, §2

Cladosporium fulvum = test: Growth of germs on potato dextrose-agar medium containing the compound (Ex. 5); type: cell-based; set-up: key: +++: extremely much growth; ++: much growth; +: a little growth; -: no growth; conditions: two weeks, 25° C.
Description: as §1, §2

Stemphylium lycopersici = test: Growth of germs on potato dextrose-agar medium containing the compound (Ex. 7); type: cell-based; set-up: key: +++: extremely much growth; ++: much growth; +: a little growth; -: no growth; conditions: two weeks, 25° C.
Description: as §1, §2

[2] = tested on: Fusarium oxysporum f. lycopersici; test: Growth of germs on potato dextrose-agar medium containing the compound (Ex. 8); type: cell-based; set-up: key: +++: extremely much growth; ++: much growth; +: a little growth; -: no growth; conditions: two weeks, 25° C.
Description: as §1, §2

[3] = tested on: Colletotrichum lagenarium; test: Growth of germs on potato dextrose-agar medium containing the compound (Ex. 9, germ of anthracnose on cucumbers); type: cell-based; set-up: key: +++: extremely much growth; ++: much growth; +: a little growth; -: no growth; conditions: two weeks, 25° C.
Description: as §1, §2
^1 Germ of anthracnose on cucumbers

[4] = tested on: Colletotrichum lagenarium; test: Growth of germs on potato dextrose-agar medium containing the compound (Ex. 10, germ of anthracnose on watermelons); type: cell-based; set-up: key: +++: extremely much growth; ++: much growth; +: a little growth; -: no growth; conditions: two weeks, 25° C.
Description: as §1, §2
^2 Germ of anthracnose on watermelons

Sclerotinia sclerotiorum = test: Growth of germs on potato dextrose-agar medium containing the compound (Ex. 12); type: cell-based; set-up: key: +++: extremely much growth; ++: much growth; +: a little growth; -: no growth; conditions: two weeks, 25° C.
Description: as §1, §2

Mycosphaerella melonis = test: Growth of germs on potato dextrose-agar medium containing the compound (Ex. 13); type: cell-based; set-up: key: +++: extremely much growth; ++: much growth; +: a little growth; -: no growth; conditions: two weeks, 25° C.
Description: as §1, §2

Pyrenochaeta sp. = test: Growth of germs on potato dextrose-agar medium containing the compound (Ex. 14); type: cell-based; set-up: key: +++: extremely much growth; ++: much growth; +: a little growth; -: no growth; conditions: two weeks, 25° C.
Description: as §1, §2

Cercospora kikuchii = test: Growth of germs on potato dextrose-agar medium containing the compound (Ex. 15); type: cell-based; set-up: key: +++: extremely much growth; ++: much growth; +: a little growth; -: no growth; conditions: two weeks, 25° C.
Description: as §1, §2

Valsa ceratosperma [5] = test: Length of disease spots on cut apple branches immersed in germicide before inoculation (Ex. 16); type: in vivo; conditions: 25° C.
Description: (§3) Branches of Delicious apple (branch diameter: about 1 cm. thick) grown for 1-2 years were cut to 10 cm. length. The cut branches were dried in a low temperature chamber (3° C.) until the water content of the cut branches became 50%. The dried cut branches were immersed in an aqueous solution of ethyl 2-(2-hydroxyethylamino)-3-benzoylpropionate hydrochloride (500 ppm, 1000 ppm and 2500 ppm) for one minute and then dried.
(§4) Each cut branch was end bored by a white heated 8 mm diameter cork borer. Valsa ceratosperma, previously cultured for four days on a potato dextrose-agar culture medium, was introduced into the branch by inoculating the branch with the Valsa ceratosperma containing culture by means of the sterilized cork borer. The branches prepared in this way were placed on wet filter paper spread in a polyethylene tray. The tray was inserted into a polyethylene bag which was sealed and then the bag was put into a thermostat (25° C.) for various controlled times.
(§5) After removal from the thermostat, the length of disease spots on each branch was measured.
A similar experiment for comparison was carried out using Benomyl, i.e. methyl-1-(buthylcarbamoyl)-2-benzimidazole carbamate as the germicide. The results of the comparative experiment and also a control experiment, in which the dried cut branches were not immersed in germicide (blank), are also shown in Table 2.

Valsa ceratosperma [6] = test: Length of disease spots on apple branches treated on the third day after inoculation (Ex. 17); type: in vivo; conditions: 1000 ppm on third day after inoculation
Description: as §3, §4, §5
The same experiment as in Example 16 was carried out except that the apple branches were treated with the germicides (1000 ppm) on the third day after the branches were inoculated with the germ. The lengths of disease spots on the third day […], fifth day and seventh day were 5.1 mm, 5.2 mm and 5.2 mm respectively.

Compound: CCOC(=O)C(CC(=O)c1ccccc1)NCCO.Cl (centres unmarked) [Ethyl 2-(2-hydroxyethylamino)-3-benzoylpropionate hydrochloride]
- growing conditions (growth of germ) (Valsa ceratosperma [1]; 10 ppm): -
- growing conditions (growth of germ) (Valsa ceratosperma [1]; 20 ppm): -
- growing conditions (growth of germ) (Valsa ceratosperma [1]; 50 ppm): -
- growing conditions (growth of germ) (Valsa ceratosperma [1]; 100 ppm): -
- growing conditions (growth of germ) (Valsa ceratosperma [1]; 200 ppm): -
- growing conditions (growth of germ) (Verticillium alboatrum; 10 ppm): +++
- growing conditions (growth of germ) (Verticillium alboatrum; 20 ppm): ++
- growing conditions (growth of germ) (Verticillium alboatrum; 50 ppm): -
- growing conditions (growth of germ) (Verticillium alboatrum; 100 ppm): -
- growing conditions (growth of germ) (Verticillium alboatrum; 200 ppm): -
- growing conditions (growth of germ) (Botrytis alli; 10 ppm): +
- growing conditions (growth of germ) (Botrytis alli; 20 ppm): -
- growing conditions (growth of germ) (Botrytis alli; 50 ppm): -
- growing conditions (growth of germ) (Botrytis alli; 100 ppm): -
- growing conditions (growth of germ) (Botrytis alli; 200 ppm): -
- growing conditions (growth of germ) (Cladosporium cucumerium; 10 ppm): +++
- growing conditions (growth of germ) (Cladosporium cucumerium; 20 ppm): +++
- growing conditions (growth of germ) (Cladosporium cucumerium; 50 ppm): -
- growing conditions (growth of germ) (Cladosporium cucumerium; 100 ppm): -
- growing conditions (growth of germ) (Cladosporium cucumerium; 200 ppm): -
- growing conditions (growth of germ) (Cladosporium fulvum; 10 ppm): ++
- growing conditions (growth of germ) (Cladosporium fulvum; 20 ppm): -
- growing conditions (growth of germ) (Cladosporium fulvum; 50 ppm): -
- growing conditions (growth of germ) (Cladosporium fulvum; 100 ppm): -
- growing conditions (growth of germ) (Cladosporium fulvum; 200 ppm): -
- growing conditions (growth of germ) (Stemphylium lycopersici; 10 ppm): +
- growing conditions (growth of germ) (Stemphylium lycopersici; 20 ppm): +
- growing conditions (growth of germ) (Stemphylium lycopersici; 50 ppm): -
- growing conditions (growth of germ) (Stemphylium lycopersici; 100 ppm): -
- growing conditions (growth of germ) (Stemphylium lycopersici; 200 ppm): -
- growing conditions (growth of germ) ([2]; 10 ppm): +++
- growing conditions (growth of germ) ([2]; 20 ppm): ++
- growing conditions (growth of germ) ([2]; 50 ppm): -
- growing conditions (growth of germ) ([2]; 100 ppm): -
- growing conditions (growth of germ) ([2]; 200 ppm): -
- growing conditions (growth of germ) ([3]; 10 ppm): +++
- growing conditions (growth of germ) ([3]; 20 ppm): -
- growing conditions (growth of germ) ([3]; 50 ppm): -
- growing conditions (growth of germ) ([3]; 100 ppm): -
- growing conditions (growth of germ) ([3]; 200 ppm): -
- growing conditions (growth of germ) ([4]; 10 ppm): ++
- growing conditions (growth of germ) ([4]; 20 ppm): ++
- growing conditions (growth of germ) ([4]; 50 ppm): -
- growing conditions (growth of germ) ([4]; 100 ppm): -
- growing conditions (growth of germ) ([4]; 200 ppm): -
- growing conditions (growth of germ) (Sclerotinia sclerotiorum; 10 ppm): +++
- growing conditions (growth of germ) (Sclerotinia sclerotiorum; 20 ppm): +++
- growing conditions (growth of germ) (Sclerotinia sclerotiorum; 50 ppm): -
- growing conditions (growth of germ) (Sclerotinia sclerotiorum; 100 ppm): -
- growing conditions (growth of germ) (Sclerotinia sclerotiorum; 200 ppm): -
- growing conditions (growth of germ) (Mycosphaerella melonis; 10 ppm): +++
- growing conditions (growth of germ) (Mycosphaerella melonis; 20 ppm): -
- growing conditions (growth of germ) (Mycosphaerella melonis; 50 ppm): -
- growing conditions (growth of germ) (Mycosphaerella melonis; 100 ppm): -
- growing conditions (growth of germ) (Mycosphaerella melonis; 200 ppm): -
- growing conditions (growth of germ) (Pyrenochaeta sp.; 10 ppm): ++
- growing conditions (growth of germ) (Pyrenochaeta sp.; 20 ppm): ++
- growing conditions (growth of germ) (Pyrenochaeta sp.; 50 ppm): -
- growing conditions (growth of germ) (Pyrenochaeta sp.; 100 ppm): -
- growing conditions (growth of germ) (Pyrenochaeta sp.; 200 ppm): -
- growing conditions (growth of germ) (Cercospora kikuchii; 10 ppm): +
- growing conditions (growth of germ) (Cercospora kikuchii; 20 ppm): -
- growing conditions (growth of germ) (Cercospora kikuchii; 50 ppm): -
- growing conditions (growth of germ) (Cercospora kikuchii; 100 ppm): -
- growing conditions (growth of germ) (Cercospora kikuchii; 200 ppm): -
- Length of disease spot (Valsa ceratosperma [5]; 500 ppm, after 3 days): 0 mm
- Length of disease spot (Valsa ceratosperma [5]; 500 ppm, after 5 days): 0 mm
- Length of disease spot (Valsa ceratosperma [5]; 500 ppm, after 7 days): 0.2 mm
- Length of disease spot (Valsa ceratosperma [5]; 1000 ppm, after 3 days): 0 mm
- Length of disease spot (Valsa ceratosperma [5]; 1000 ppm, after 5 days): 0 mm
- Length of disease spot (Valsa ceratosperma [5]; 1000 ppm, after 7 days): 0 mm
- Length of disease spot (Valsa ceratosperma [5]; 2500 ppm, after 3 days): 0 mm
- Length of disease spot (Valsa ceratosperma [5]; 2500 ppm, after 5 days): 0 mm
- Length of disease spot (Valsa ceratosperma [5]; 2500 ppm, after 7 days): 0 mm
- lengths of disease spots (Valsa ceratosperma [6]; fifth day): 5.2 mm
- lengths of disease spots (Valsa ceratosperma [6]; seventh day): 5.2 mm
- lengths of disease spots (Valsa ceratosperma [6]; third day): 5.1 mm
